Measurements as given in patent US11427861B2, “Methods for identifying and modulating co-occurant cellular phenotypes” (MASSACHUSETTS INSTITUTE OF TECHNOLOGY, priority 2016, dated 2022).

Tested on: dendritic cells
Test: Induction of the functional dendritic cell subset by immunomodulators
Assay type: cell-based, human
Settings: dendritic cells of normal donors; TLR3 ligand as immunomodulator

In the case of poly I:C, the “population of the functional subset of dendritic cells (CD64 and PD-L1 surface expression)” value is reported as “induced a larger population of the functional subset of dendritic cells”.
